Measured values taken from patent US4521406A, “Antitumor agent” (priority 1980, dated 1985).
“Also recorded” adds a separate entry of the source.

Experiments:
[1] = system: tumor; test: General statements on antitumor activity; details: applicant's summary of Experimental Examples 1 to 6
[2] = system: Glioblastoma cancer cells; test: Glioblastoma transplanted into the brain of rats, survival (Experimental Example 6); details: 5-fluorocytosine 4 ml (10 mg/ml) i.p. every other day; 0.02 ml cytosinedeaminase (1 IU/ml) or PBS to transplantation site
[3] = system: tumor; details: general statement; cited from earlier work
[4] = system: human Glioblastoma; test: Morphological changes of human Glioblastoma (Experimental Example 4); type: cell-based; details: 50 μg/ml
[5] = system: HeLa cells; test: Growth inhibition of HeLa cells (Experimental Example 1); details: for number of cells: drug used alone (control)
[6] = general statement; cited from earlier work

Compound	antitumor activity of the individual agents / of combined use [1]	Average days of survival [2] [days]	antitumor activity [3]	morphological changes [4]	number of cells ([5]; 2 days elapsed, 24 h contact)	number of cells ([5]; 4 days elapsed, 24 h contact)	number of cells ([5]; 6 days elapsed, 24 h contact)	antitumor activity when used singly ([5]; HeLa cells, used alone, result in words)	number of cells ([5]; day 0, before 24 h treatment)	toxicity [6]
Nc1nc(=O)[nH]cc1F [5-fluorocytosine]	neither 5-fluorocytosine nor cytosinedeaminase has antitumor activity	32	no antitumor activity	morphological changes such as the disintegration of the cytoplasm and the deformation of the nucleus were evidently noted	73 ×10^-4 cells/ml	120 ×10^-4 cells/ml	205 ×10^-4 cells/ml	do not have any antitumor activity	29 ×10^-4 cells/ml	–
O=c1[nH]cc(F)c(=O)[nH]1 [5-fluorouracil]	–	–	intense antitumor activity; also recorded: effective against solid tumors	–	–	–	–	–	–	intense toxicity in oral and intravenous administrations
O=c1[nH]c(=O)n(C2CCCO2)cc1F (stereo not drawn) [tetrahydrofuryl 5-fluorouracil]	–	–	–	–	–	–	–	–	–	low toxicity
